Experimental findings from US20240059712A1, “BIFUNCTIONAL COMPOUNDS AND PHARMACEUTICAL USES THEREOF” (priority 2022, published 2024) are described below.

This test addresses T1, KRAS^G12D protein (Homo sapiens, UniProt P01116, G12D).
T1 construct: host or cells: Aspc-1 (AsPC-1) cells
The experiment in a line: Protein degradation study (western blot) in Aspc-1 cells. As to conditions: for inhibition at 0.001 µM / inhibition at 0.005 µM / inhibition at 0.05 µM / inhibition at 1 µM / inhibition at 0.1 µM: ASPC1, 24 h, 24 hours; for inhibition at 0.001 µM: Aspc-1 cells treated with 1 nM compound; for inhibition at 0.001 µM / inhibition at 0.005 µM / inhibition at 0.05 µM: read-out: Rate of degradation; for inhibition at 0.005 µM: Aspc-1 cells treated with 0.005 μM compound; for inhibition at 0.05 µM: Aspc-1 cells treated with 50 nM compound; for DC50: Aspc-1 cells, half-maximum degradation concentration, read-out: DC50 of compounds induced Ras G12D protein degradation; for inhibition at 1 µM: Aspc-1 cells treated with 1 μM compound; for inhibition at 1 µM / inhibition at 0.1 µM: read-out: Rate of protein degradation; for inhibition at 0.1 µM: Aspc-1 cells treated with 0.1 μM compound. It is filed as cell-based. The method, then: Aspc-1 (Cobioer, CBP60546) cells in exponential growth phase were inoculated on a 6-well cell culture plate (Corning, 3516) at density of 1E6/well; and cells in the plate were cultured in 37° C. incubator containing 5%-carbon dioxide. The next day, testing compounds were dissolved in DMSO (Sigma, RNBF5902) for the preparation of a 10-mM concentration stock solution. The stock solution was diluted with complete medium (RPMI-1640 supplemented with 10% fetal bovine serum, 1% penicillin-streptomycin), yielding working solutions of various concentrations. The plate, after the addition of compounds, was placed in a 5% carbon dioxide incubator, and incubated at 37° C. for 24 hours (final DMSO concentration was 0.1%). The plate was then removed from the incubator, and the cells were washed twice with precooled PBS (Gibco, 14190250), followed by addition of 80-μL RIPA lysis buffer (containing protease inhibitor (Invitrogen™, AM2696)) to each well. The adherent cells were scraped off with a cell scraper, and the cell lysate was transferred to a 1.5-mL centrifuge tube followed with a 30-minute incubation on ice. The lysate was then clarified with centrifugation at 14000 rpm for 10 min at 4° C. The supernatant was transferred into a new 1.5-mL centrifuge tube, and protein concentration was measured with BCA protein detection kit (Thermo Fisher, 23225). G12D protein level was assessed by western blot.
A mixture of cell lysate (40 μL) and loading buffer (10 μL, 5×SDS (Beyotime, P0015L)) was denatured in a water-bath at 95° C. for 10 min. The denatured protein sample, at 30 μL/well, was loaded into corresponding well of 4-20% Bis-Tris gel (Kingsley, M00656). Protein samples were initially electrophoresed at 80 V for 30 minutes, followed by 120 V for 40 minutes, until the bromophenol blue strip ran to an appropriate position. After electrophoresis, iBlot2 (Life Technologies, IB21001) was used to transfer the separated samples onto PVDF film. The PVDF membrane was washed with double-distilled water and then blocked in TBST (Thermo Scientific, 28360) buffer containing 5% non-fat milk, for 2 hours. Blocked membrane was rinsed with tris-buffered saline tween-20 (Thermo Scientific, 28360, TBST) three times, 10 minutes each. Membrane was then incubated with 1:1000 diluted KRAS primary antibody (CST, cat #14429S) overnight at 4° C. Membrane was rinsed in a way described previously followed by 1 hour incubation of secondary antibody at room temperature. After washing the film for three times with TBST, ECL color developing solution was applied, and image was captured with Biorad Chemi Doc gel imager. The band gray value was quantified (Image Lab), and protein degradation level was calculated according to the following formula:
Level of RAS protein expression=(RAS-compound/GAPDH)/(RAS-DMSO/GAPDH)
Level of degradation (%)=(1−Rate of RAS protein expression)×100
Symbols of −, +, ++, +++ indicate that the degradation level of Ras protein induced by testing compounds are […], 11 to 30%, 31 to 60% and greater than 60%, respectively.
Half-maximum degradation concentrations (DC50s) of testing compounds were calculated using GraphPad Prism and their values were shown in Table 6. Symbols of […] represent DC50s equal or less than 10 nM, 11-50 nM, 51-100 nM, and 101-200 nM, respectively.
(In general: A western blot detects proteins with antibodies after separation by electrophoresis.)

A value given as a limit tells only on which side of the number the result lay.

T1 sequence (P01116 1-188 isoform P01116-2 G12D): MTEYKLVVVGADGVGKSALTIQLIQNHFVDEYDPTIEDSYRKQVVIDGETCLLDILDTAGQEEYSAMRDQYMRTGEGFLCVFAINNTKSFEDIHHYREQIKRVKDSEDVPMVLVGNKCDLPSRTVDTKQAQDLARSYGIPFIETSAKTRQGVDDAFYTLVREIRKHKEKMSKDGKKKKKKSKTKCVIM

Take `C#Cc1c(F)ccc2cc(O)cc(-c3ncc4c(N5CC6CCC(C5)N6)nc(OCC5(CN6CCC(CN7CCC(c8cccc(N9CC(=O)NC9=O)c8)CC7)CC6)CC5)nc4c3F)c12` [Compound 7a]: the inhibition at 0.001 µM lay within 11 to 30%.

For the molecule `C#Cc1c(F)ccc2cc(O)cc(-c3ncc4c(N5CC6CCC(C5)N6)nc(OCC5(CN6CCC(CN7CCC(c8cccc(N9CCC(=O)NC9=O)c8C)CC7)CC6)CC5)nc4c3F)c12` [Compound 8a], the inhibition at 0.001 µM lay within 11 to 30%. Turning to `Cc1ccc2[nH]ncc2c1-c1ncc2c(N3CC4CCC(C3)N4)nc(OCC3(CN4CCC5(CC4)CC(N4CCC(c6ccc7c8c(cccc68)C(=O)N7C6CCC(=O)NC6=O)CC4)C5)CC3)nc2c1F` (centres unmarked) [Compound 18a], the inhibition at 0.005 µM is 11 to 30%. As to `Nc1cc(Cl)c(C(F)(F)F)c(-c2ncc3c(N4CC5CCC(C4)N5)nc(OCC4(CN5CCC6(CC5)CC(N5CCC(c7cccc(N8CCC(=O)NC8=O)c7)CC5)C6)CC4)nc3c2F)c1` [Compound 19a], the inhibition at 0.005 µM lay within 11 to 30% and the inhibition at 0.05 µM was in the range of 11 to 30%. Turning to `C#Cc1c(F)ccc2cccc(-c3ncc4c(N5CC6CCC(C5)N6)nc(OCC5(CN6CCC7(CC6)CC(N6CCC(c8ccc(NC9CCC(=O)NC9=O)cc8F)CC6)C7)CC5)nc4c3F)c12` (centres unmarked) [Compound 22a], the inhibition at 0.005 µM was 11 to 30% and the inhibition at 0.05 µM is 31 to 60%.

`C#Cc1c(F)ccc2cc(O)cc(-c3ncc4c(N5CC6CCC(C5)N6)nc(OCC5(CN6CC7(CC(CN8CCC(c9ccc%10c(C%11CCC(=O)NC%11=O)nn(C)c%10c9)CC8)C7)C6)CC5)nc4c3F)c12` (centres unmarked) [Compound 25a]: the inhibition at 0.005 µM was in the range of 31 to 60% and the inhibition at 0.05 µM lay within 31 to 60%.

Regarding `C#Cc1c(F)ccc2cc(O)cc(-c3ncc4c(N5CC6CCC(C5)N6)nc(OCC5(CN6CC7(CC(C(=O)N8CCC(c9ccc%10c(C%11CCC(=O)NC%11=O)nn(C)c%10c9)CC8)C7)C6)CC5)nc4c3F)c12` (centres unmarked) [Compound 27a], the inhibition at 0.005 µM was 11 to 30% and the inhibition at 0.05 µM lay in the range of 11 to 30%. As for `C#Cc1c(F)ccc2cc(O)cc(-c3ncc4c(N5CC6CCC(C5)N6)nc(OCCCN5CCN(C(=O)CN6CCC(c7ccc8c(C9CCC(=O)NC9=O)nn(C)c8c7)CC6)CC5)nc4c3F)c12` (centres unmarked) [Compound 33], the DC50 – broadly, the midpoint of the concentration-degradation curve – lay in the range of 11 to 50 nM. `C#Cc1c(F)ccc2cc(O)cc(-c3ncc4c(N5CC6CCC(C5)N6)nc(OCC5(CN6CCC(N7CC(N8CCC(c9ccc%10c(C%11CCC(=O)NC%11=O)nn(C)c%10c9)CC8)C7)CC6)CC5)nc4c3F)c12` (centres unmarked) [Compound 34a]: the inhibition at 0.005 µM was 31 to 60% and the inhibition at 0.05 µM is greater than 60%.

On to `C#Cc1c(F)ccc2cc(O)cc(-c3ncc4c(N5CC6CCC(C5)N6)nc(OCC5(CN6CCC(N7CC(C(=O)N8CCC(c9ccc%10c(C%11CCC(=O)NC%11=O)nn(C)c%10c9)CC8)C7)CC6)CC5)nc4c3F)c12` (centres unmarked) [Compound 35a], for which the inhibition at 0.005 µM lay in the range of 31 to 60% and the inhibition at 0.05 µM was greater than 60%. For `C#Cc1c(F)ccc2cc(O)cc(-c3ncc4c(N5CC6CCC(C5)N6)nc(OCC5(CN6CCC7(CC6)CC(N6CCC(c8ccc(NC9%10CC(C9)C(=O)NC%10=O)cc8F)CC6)C7)CC5)nc4c3F)c12` [Compound 36a], the inhibition at 0.005 µM is greater than 60%, the inhibition at 0.05 µM was greater than 60% and the DC50 was less than 10 nM. As for `C#Cc1c(F)ccc2cc(O)cc(-c3ncc4c(N5CC6CCC(C5)N6)nc(OCC5(CN6CCC7(CC6)CC(N6CCC(c8ccc(CN9CCC(=O)NC9=O)cc8)CC6)C7)CC5)nc4c3F)c12` [Compound 38a], the inhibition at 0.005 µM was 11 to 30%. With `C#Cc1c(F)ccc2cc(O)cc(-c3ncc4c(N5CC6CCC(C5)N6)nc(OCC5(CN6CCC7(CC6)CC(c6cc8c(cc6F)c(N6CCC(=O)NC6=O)nn8C)C7)CC5)nc4c3F)c12` [Compound 39a], the inhibition at 0.005 µM is greater than 60% and the DC50 is less than 10 nM.

Take `C#Cc1c(F)ccc2cc(O)cc(-c3ncc4c(N5CC6CCC(C5)N6)nc(OCC5(CN6CCC7(CC6)CC(N6CCC(c8cc9c(cc8F)c(C8CCC(=O)NC8=O)nn9C)CC6)C7)CC5)nc4c3F)c12` (centres unmarked) [Compound 41a]: the inhibition at 0.005 µM is greater than 60% and the inhibition at 0.05 µM is greater than 60%.

In the case of `C#Cc1c(F)ccc2cc(O)cc(-c3ncc4c(N5CC6CCC(C5)N6)nc(OC5CCN(CCCCCCCCCCC(=O)N[C@H](C(=O)N6C[C@H](O)C[C@H]6C(=O)NCc6ccc(-c7scnc7C)cc6)C(C)(C)C)CC5)nc4c3F)c12` [Compound 43], the half-maximal degradation concentration (DC50) lay in the range of 51 to 100 nM. On the same count and under the same terms, the figure for `C#Cc1c(F)ccc2cc(O)cc(-c3ncc4c(N5CC6CCC(C5)N6)nc(OC5CCN(CCCCCCCCCCC(=O)N[C@H](C(=O)N6C[C@H](O)C[C@H]6C(=O)N[C@@H](C)c6ccc(-c7scnc7C)cc6)C(C)(C)C)CC5)nc4c3F)c12` [Compound 45] is 11 to 50 nM; for `C#Cc1c(F)ccc2cc(O)cc(-c3ncc4c(N5CC6CCC(C5)N6)nc(OC5CCN(CCCCCCCCCCC(=O)N[C@H](C(=O)N6C[C@H](O)C[C@H]6C(=O)N[C@@H](C)c6ccc(-c7scnc7C)cc6)C(C)(C)C)C5)nc4c3F)c12` (some centres unmarked) [Compound 55] it is 51 to 100 nM. Same read-out and setting: the result for `C#Cc1c(F)ccc2cc(O)cc(-c3ncc4c(N5CC6CCC(C5)N6)nc(OCC5CCN(CCCCCCCCCCC(=O)N[C@H](C(=O)N6C[C@H](O)C[C@H]6C(=O)N[C@@H](C)c6ccc(-c7scnc7C)cc6)C(C)(C)C)C5)nc4c3F)c12` (some centres unmarked) [Compound 56] reads 11 to 50 nM. The same measure, in the same setting: the result for `C#Cc1c(F)ccc2cc(O)cc(-c3ncc4c(N5CC6CCC(C5)N6)nc(OCC5CCN(CCCCCCCCCCC(=O)N6CCC(c7ccc8c(C9CCC(=O)NC9=O)nn(C)c8c7)CC6)C5)nc4c3F)c12` (centres unmarked) [Compound 57] reads less than 10 nM. Consider `C#Cc1c(F)ccc2cc(O)cc(-c3ncc4c(N5CC6CCC(C5)N6)nc(OCCCN5CCC(C(=O)N6CCN(C(=O)C[C@H](NC(=O)[C@@H]7C[C@@H](O)CN7C(=O)[C@@H](NC(=O)C7(F)CC7)C(C)(C)C)c7ccc(-c8scnc8C)cc7)CC6)CC5)nc4c3F)c12` [Compound 65], for which the inhibition at 1 µM was in the range of 11 to 30%. In the case of `C#Cc1c(F)ccc2cc(O)cc(-c3ncc4c(N5CC6CCC(C5)N6)nc(OC5CCN(CC(=O)N6CCC(c7ccc8c(C9CCC(=O)NC9=O)nn(C)c8c7)CC6)CC5)nc4c3F)c12` (centres unmarked) [Compound 69], the inhibition at 0.1 µM is greater than 60% and the inhibition at 1 µM is greater than 60%.

For the molecule `C#Cc1c(F)ccc2cc(O)cc(-c3ncc4c(N5CC6CCC(C5)N6)nc(OC5CCN(CC6CCN(C(=O)C[C@H](NC(=O)[C@@H]7C[C@@H](O)CN7C(=O)[C@@H](NC(=O)C7(F)CC7)C(C)(C)C)c7ccc(-c8scnc8C)cc7)CC6)CC5)nc4c3F)c12` [Compound 70], the inhibition at 0.1 µM lay within 11 to 30% and the inhibition at 1 µM was greater than 60%. For the molecule `C#Cc1c(F)ccc2cc(O)cc(-c3ncc4c(N5CC6CCC(C5)N6)nc(OCCCN5CCN(CCC(=O)N6CCC(c7ccc8c(C9CCC(=O)NC9=O)nn(C)c8c7)CC6)CC5)nc4c3F)c12` (centres unmarked) [Compound 74], the inhibition at 0.1 µM lay within 31 to 60%. As to `C#Cc1c(F)ccc2cc(O)cc(-c3ncc4c(N5CC6CCC(C5)N6)nc(OCC5(CN6CCC(c7ccc8c(C9CCC(=O)NC9=O)nn(C)c8c7)CC6)CC5)nc4c3F)c12` (centres unmarked) [Compound 99], the inhibition at 0.1 µM was greater than 60%. Still for that read-out and setting: the figure for `C#Cc1c(F)ccc2cc(O)cc(-c3ncc4c(N5CC6CCC(C5)N6)nc(OCC5(CN6CCC(C(=O)N7CCC(c8ccc9c(C%10CCC(=O)NC%10=O)nn(C)c9c8)CC7)CC6)CC5)nc4c3F)c12` (centres unmarked) [Compound 100] is greater than 60%; for `C#Cc1c(F)ccc2cc(O)cc(-c3ncc4c(N5CC6CCC(C5)N6)nc(OC5CCN(CC(=O)N6CCC7(CC6)CC(N6CCC(c8ccc9c(C%10CCC(=O)NC%10=O)nn(C)c9c8)CC6)C7)C5)nc4c3F)c12` (centres unmarked) [Compound 101] it is 11 to 30%.
